{"source": "patent US20230064324A1", "about": "“NEW USES FOR STEVIOL” (SUNTORY HOLDINGS LIMITED, priority 2019, published 2023)", "key": {"[1]": {"system": "GRP78", "assay": "GRP78 expression in neuronal cells under endoplasmic reticulum stress (RT-PCR)", "format": "cell-based, Rat", "details": "pretreatment 24 h, tunicamycin 1.0 μM 24 h", "experimental": "(§1) Neuronal cells were prepared as follows. PC12 cells were reconstituted by seeding at 2×10^6 cells/flask to a collagen IV-coated flask, and precultured for 3 days in the growth medium in a CO2 incubator.\n(§2) The lysate was preserved at −80° C. until use.\n(§3) The internal standard gene used was GAPDH gene."}, "[2]": {"system": "neuronal cells (induced from PC12 cells)", "assay": "Cell-protecting effect against tunicamycin-induced endoplasmic reticulum stress (WST-8)", "details": "1 μM tunicamycin", "description": "PC12 cells were precultured using the growth medium in a same manner as Example 3. The cells were detached using 0.25% trypsin-EDTA, seeded at 5,000 cells/100 μL/well to a collagen IV-coated 96-well plate (Cat. No. 354429, Corning) using the growth medium, and cultured overnight in a CO2 incubator. On the next day, the medium was replaced with 100 μL of the differentiation medium, and the cells were cultured for 2 days in a CO2 incubator to induce their differentiation into neuronal cells. […] IGF-1 (Cat. No. SRP4121, Sigma-Aldrich Co., LLC) was dissolved at 100 μg/mL in Nuclease Free Water and then added at 100 ng/mL to the differentiation medium.\nAfter the completion of endoplasmic reticulum stress induction treatment, viable cell count measurement was performed by the WST-8 method to evaluate damage on the cells by endoplasmic reticulum stress. Specifically, the medium of each well after culture was replaced with 200 μL of a differentiation medium supplemented with a 1/10 amount of viable cell count measurement reagent SF, and the cells were incubated in a CO2 incubator. 30 minutes later and 90 minutes later, absorbance (450 nm, reference wavelength: 630 nm) was measured using a plate reader (VARIOSKAN FLASH, Thermo Fisher Scientific Inc.), and absorbance difference per 60 minutes was regarded as a relative viable cell count."}, "[3]": {"system": "CHOP", "assay": "CHOP expression in pancreatic cells (βTC6) under endoplasmic reticulum stress (RT-PCR)", "format": "cell-based, Mouse", "details": "pretreatment 4 h, tunicamycin 0.16 μM 24 h", "experimental": "as §2, §3"}, "[4]": {"system": "GRP78", "assay": "GRP78 expression in adipocytes under endoplasmic reticulum stress (RT-PCR)", "format": "cell-based, Human", "details": "pretreatment 24 h, tunicamycin 0.65 μM 24 h", "experimental": "(§4) Adipocytes were prepared as follows. Normal human subcutaneous preadipocytes were reconstituted in a T75 flask using a growth medium (PBM-2 medium, Cat. No. PT-8002, Lonza, supplemented with 10% FBS, 2 mM L-glutamine, 50 μg/mL gentamycin, and 37 ng/mL amphotericin-B), and precultured for 3 days in a CO2 incubator (37° C., 5% CO2; the same holds true for the description below).\nas §2, §3"}, "[5]": {"system": "CHOP", "assay": "CHOP expression in adipocytes under endoplasmic reticulum stress (RT-PCR)", "format": "cell-based, Human", "details": "pretreatment 24 h, tunicamycin 0.65 μM 24 h", "experimental": "as §4, §2, §3"}, "[6]": {"system": "neuronal cells (induced from PC12 cells)", "assay": "Cytotoxicity of steviol to neuronal cells (differentiated PC12, WST-8)", "format": "cell-based, Rat", "details": "for Relative viable cell count (%): 2 days, differentiated PC12, Control=100%", "source_text": "PC12 cells (Cat. No. 88022401, ECACC) were precultured in a collagen IV-coated flask using the growth medium. […] A vehicle control composed of a test medium supplemented with 0.1% DMSO (final concentration) was used as a negative control."}, "[7]": {"system": "GRP78", "assay": "GRP78 expression in pancreatic cells (βTC6) under endoplasmic reticulum stress (RT-PCR)", "format": "cell-based, Mouse", "details": "pretreatment 4 h, tunicamycin 0.16 μM 24 h", "experimental": "as §2, §3"}, "[8]": {"system": "CHOP", "assay": "CHOP expression in neuronal cells under endoplasmic reticulum stress (RT-PCR)", "format": "cell-based, Rat", "details": "pretreatment 1 h, tunicamycin 0.16 μM 24 h", "experimental": "as §1, §2, §3"}, "[9]": {"system": "endoplasmic reticulum stress markers CHOP and GRP78", "assay": "Endoplasmic reticulum stress-suppressing effect in each type of cell (markers CHOP and GRP78), overall statement", "format": "cell-based", "details": "neuronal cells, adipocytes, hepatocytes, pancreatic cells; tunicamycin-induced; CHOP and GRP78 as index", "experimental": "Steviol was evaluated for its influence on endoplasmic reticulum stress in each type of cell by using endoplasmic reticulum stress markers CHOP and GRP78 as an index. The test cells used were neuronal cells (induced from PC12 cells), adipocytes (normal human subcutaneous preadipocytes, Cat. No. PT-5020, Lonza Group AG), hepatocytes (HepG2, Cat. No. JCRB1054, JCRB) and pancreatic cells (βTC6, ATCC® CRL-11506).\n4PA (P21005, Sigma-Aldrich Co., LLC) was dissolved in a medium and then added at a predetermined concentration to a differentiation medium or a growth medium.\nAfter the completion of endoplasmic reticulum stress induction treatment, the expression levels of CHOP and GRP78 were measured to evaluate the degree of endoplasmic reticulum stress. First, FasteLane lysate (RNA) was prepared for RNA extraction using FastLane Cell Probe kit (Cat. No. 216413, Qiagen N.V.). After removal of the medium, each well was washed by the addition of 125 μL of Buffer FCW and its immediate removal. Then, 50 μL of Cell processing mix was added to each well, followed by incubation at room temperature for 5 minutes to prepare FasteLane lysate. […]\nRT-PCR reaction was performed under conditions of 50° C. for 30 minutes, 95° C. for 15 minutes, and (94° C. for 15 seconds and 60° C. for 60 seconds)×40 cycles. […] A relative expression level was calculated by the ΔΔCt method. […]"}, "[10]": {"system": "PC12 cells (clone HS)", "assay": "Cytotoxicity of steviol to PC12 cells (WST-8 viable cell count)", "format": "cell-based, Rat", "details": "for Relative viable cell count (%): 3 days, Control=100%", "experimental": "PC12 cells (clone HS, Cat. No. JCRB0266, JCRB) were precultured for 3 days in a collagen IV-coated flask (T-75, Corning Inc., Cat. No. 354523) using a growth medium (DMEM medium (low glucose, Cat. No. 08456-65, Nacalai Tesque, Inc.) supplemented with 10% FBS (Cat. No. 172012, Sigma-Aldrich Co., LLC), 10% horse serum (Cat. No. 16050-122, Thermo Fisher Scientific Inc.), and 1% penicillin-streptomycin) in a CO2 incubator (37° C., 5% CO2; the same holds true for the description below). […] A vehicle control composed of a test medium supplemented with 0.1% DMSO (final concentration) was used as a negative control."}}, "data": [{"smiles": "C=C1C[C@@]23CC[C@H]4[C@@](C)(CCC[C@@]4(C)C(=O)O)[C@@H]2CC[C@]1(O)C3", "note": "[Steviol]", "values": [{"measurement": "Expression level of GRP78 in neuronal cells (relative to GAPDH, untreated=1)", "setting": "[1]; steviol 6.25 μg/mL", "result": 23.31}, {"measurement": "Expression level of GRP78 in neuronal cells (relative to GAPDH, untreated=1)", "setting": "[1]; steviol 12.5 μg/mL", "result": 23.00}, {"measurement": "Expression level of GRP78 in neuronal cells (relative to GAPDH, untreated=1)", "setting": "[1]; steviol 25 μg/mL", "result": 21.84}, {"measurement": "Expression level of GRP78 in neuronal cells (relative to GAPDH, untreated=1)", "setting": "[1]; steviol 50 μg/mL", "result": 20.15}, {"measurement": "adverse effect of endoplasmic reticulum stress on cells (in words)", "setting": "[2]", "result": "suppressed an adverse effect of endoplasmic reticulum stress on cells in a concentration-dependent manner"}, {"measurement": "Expression level of CHOP in pancreatic cells (relative to GAPDH, untreated=1)", "setting": "[3]; steviol 6.25 μg/mL", "result": 2.56}, {"measurement": "Expression level of CHOP in pancreatic cells (relative to GAPDH, untreated=1)", "setting": "[3]; steviol 12.5 μg/mL", "result": 2.46}, {"measurement": "Expression level of CHOP in pancreatic cells (relative to GAPDH, untreated=1)", "setting": "[3]; steviol 25 μg/mL", "result": 2.21}, {"measurement": "Expression level of CHOP in pancreatic cells (relative to GAPDH, untreated=1)", "setting": "[3]; steviol 50 μg/mL", "result": 2.25}, {"measurement": "Expression level of GRP78 in adipocytes (relative to GAPDH, untreated=1)", "setting": "[4]; steviol 6.25 μg/mL", "result": 4.46}, {"measurement": "Expression level of GRP78 in adipocytes (relative to GAPDH, untreated=1)", "setting": "[4]; steviol 12.5 μg/mL", "result": 4.18}, {"measurement": "Expression level of GRP78 in adipocytes (relative to GAPDH, untreated=1)", "setting": "[4]; steviol 25 μg/mL", "result": 4.06}, {"measurement": "Expression level of GRP78 in adipocytes (relative to GAPDH, untreated=1)", "setting": "[4]; steviol 50 μg/mL", "result": 3.54}, {"measurement": "Expression level of CHOP in adipocytes (relative to GAPDH, untreated=1)", "setting": "[5]; steviol 6.25 μg/mL", "result": 3.49}, {"measurement": "Expression level of CHOP in adipocytes (relative to GAPDH, untreated=1)", "setting": "[5]; steviol 12.5 μg/mL", "result": 3.23}, {"measurement": "Expression level of CHOP in adipocytes (relative to GAPDH, untreated=1)", "setting": "[5]; steviol 25 μg/mL", "result": 3.15}, {"measurement": "Expression level of CHOP in adipocytes (relative to GAPDH, untreated=1)", "setting": "[5]; steviol 50 μg/mL", "result": 3.17}, {"measurement": "cytotoxicity to neuronal cells (in words)", "setting": "[6]; 100 μg/mL steviol", "result": "no particular cytotoxicity to be noted was found"}, {"measurement": "Relative viable cell count (%)", "setting": "[6]; steviol 0.01 μg/mL", "result": 97.7, "unit": "%"}, {"measurement": "Relative viable cell count (%)", "setting": "[6]; steviol 0.1 μg/mL", "result": 104.4, "unit": "%"}, {"measurement": "Relative viable cell count (%)", "setting": "[6]; steviol 1 μg/mL", "result": 93.6, "unit": "%"}, {"measurement": "Relative viable cell count (%)", "setting": "[6]; steviol 10 μg/mL", "result": 91.4, "unit": "%"}, {"measurement": "Relative viable cell count (%)", "setting": "[6]; steviol 100 μg/mL", "result": 95.1, "unit": "%"}, {"measurement": "Expression level of GRP78 in pancreatic cells (relative to GAPDH, untreated=1)", "setting": "[7]; steviol 6.25 μg/mL", "result": 2.10}, {"measurement": "Expression level of GRP78 in pancreatic cells (relative to GAPDH, untreated=1)", "setting": "[7]; steviol 12.5 μg/mL", "result": 2.03}, {"measurement": "Expression level of GRP78 in pancreatic cells (relative to GAPDH, untreated=1)", "setting": "[7]; steviol 25 μg/mL", "result": 1.80}, {"measurement": "Expression level of GRP78 in pancreatic cells (relative to GAPDH, untreated=1)", "setting": "[7]; steviol 50 μg/mL", "result": 1.66}, {"measurement": "Expression level of CHOP in neuronal cells (relative to GAPDH, untreated=1)", "setting": "[8]; steviol 6.25 μg/mL", "result": 6.61}, {"measurement": "Expression level of CHOP in neuronal cells (relative to GAPDH, untreated=1)", "setting": "[8]; steviol 12.5 μg/mL", "result": 6.55}, {"measurement": "Expression level of CHOP in neuronal cells (relative to GAPDH, untreated=1)", "setting": "[8]; steviol 25 μg/mL", "result": 6.24}, {"measurement": "Expression level of CHOP in neuronal cells (relative to GAPDH, untreated=1)", "setting": "[8]; steviol 50 μg/mL", "result": 5.79}, {"measurement": "endoplasmic reticulum stress (in words)", "setting": "[9]", "result": "suppressed endoplasmic reticulum stress in each type of cell in a concentration-dependent manner"}, {"measurement": "cytotoxicity to PC12 cells (in words)", "setting": "[10]; 100 μg/mL steviol", "result": "no particular cytotoxicity to be noted was found"}, {"measurement": "Relative viable cell count (%)", "setting": "[10]; steviol 0.01 μg/mL", "result": 102.8, "unit": "%"}, {"measurement": "Relative viable cell count (%)", "setting": "[10]; steviol 0.1 μg/mL", "result": 97.0, "unit": "%"}, {"measurement": "Relative viable cell count (%)", "setting": "[10]; steviol 1 μg/mL", "result": 95.3, "unit": "%"}, {"measurement": "Relative viable cell count (%)", "setting": "[10]; steviol 10 μg/mL", "result": 99.6, "unit": "%"}, {"measurement": "Relative viable cell count (%)", "setting": "[10]; steviol 100 μg/mL", "result": 96.9, "unit": "%"}]}]}
